Tests used:
STK [1] = assay: DiscoveRx STK HitHunter Assay; format: biochemical
STK [2] = assay: Fluorescent Polarization STK Assay (FP Assay); format: biochemical

SMILES | IC50 (STK [1]) | IC50 (STK [2])
COC1C(N(C)CC(=O)O)CC2OC1(C)n1c3ccccc3c3c4c(c5c6ccccc6n2c5c31)C(=O)NC4 (stereo not shown) [STA-CM, N-carboxymethylstaurosporine] | 0.092 µM | 0.22 µM
CN[C@@H]1C[C@H]2O[C@@](C)([C@@H]1OC)n1c3ccccc3c3c4c(c5c6ccccc6n2c5c31)C(=O)NC4 [staurosporine] | 0.009 µM | 0.022 µM

Source: patent US6770451B2, “Screening for enzyme inhibitors” (Discoverx, Inc., priority 2001, dated 2004)
